Data: patent US8455526B2, “Therapeutic use of imidazole-5-carboxylic acid derivatives” (priority 2007, dated 2013)
Entries after “also recorded” stand apart in the source; their conditions may differ.

What was measured:
[1] = tested on: Spontaneous hypertensive rat (SHR); assay: Blood pressure and heart period of SHR after four months of feeding; type: in vivo; details: for HP: heart interphase; for DBP / SBP: recorded 4 h
Experimental: (§1) Spontaneous hypertensive rat (SHR) was administered successively, then anesthetized by intraperitoneal injection with 5 mg/kg of diazepam and 50 mg/kg of hydrochloride chlorine ammonia ketone. Then it was supined and fixed on the mice plate. The blood pressure was measured by inserting self-made artery catheter from left femoral to low positioned abdominal aorta. Left femoral vein intubation was used in intravenous administration, and then gastric fistula intubation was used. The gastric tube, artery catheter and vein catheter were passed under skin of the back to export from the neck incision. After the surgery, the animal was recovered for 40-45 h in bright automatic switching animal room with constant temperature and humidity. The recovered animal was connected in the monitoring device for measuring the blood pressure of rat with conscious free activity, and was stabilized for 3-4 h. The artery catheter was connected with pressure transformer by the perfusion tee tube. Systolic pressure per pulse, diastolic blood pressure and interphase of heart moving were real-time recorded by a computer. The systolic blood pressure (SBP), diastolic blood pressure (DBP) and heart interphase (HP) were recorded successively for 4 h. Phenylephrine was injected in femoral vein after the recording of blood pressure. The arterial baroreflex sensitivity (BRS) was measured twice and mean value was taken. The animal was sacrificed by decapitating method after recording the hemodynamic parameters and measuring the BRS. The thoracic cavity and abdominal cavity of the rat were opened, and the heart, thoracic aorta and right kidney were took quickly into normal saline. The large blood vessels of the base of the heart were removed and the whole heart was weighed after the water was completely absorbed by filter paper. The left and right ventricles were isolated and weighed respectively after the water was completely absorbed by filter paper. The right kidney was weighed after the water was completely absorbed. Then, the fat tissue and connective tissue adhered on the thoracic aorta were removed. The aortic arch was cut from the distal branch of subclavian artery to obtain a segment of the thoracic aorta of 3 cm, and weighed after the water was completely absorbed by filter paper.
(§2) After the rats were fed on four specs of rat feed for four months, the SBP, DBP and HP were real-time recorded for 4 h. The animal was sacrificed by decapitating method. The thoracic cavity and abdominal cavity of the rat were opened, and the heart, thoracic aorta and right kidney were took quickly into normal saline. The large blood vessels of the base of the heart were removed and the whole heart was weighed after the water was completely adsorbed by filter paper. The left and right ventricles were isolated and weighed respectively after the water was completely absorbed by filter paper. The right kidney was weighed after the water was completely absorbed. Then, the fat tissue and connective tissue adhered on the thoracic aorta were removed. The aortic arch was cut from the distal branch of subclavian artery to obtain a segment of the thoracic aorta of 3 cm, and weighed after the water was completely absorbed by filter paper. The indexes of general observation for terminal organ damages were analyzed.

[2] = tested on: Spontaneous hypertensive rat (SHR); assay: Indexes of general observation for organ damages in SHR (heart, right kidney, aorta); type: in vivo; details: for AW/LH: aorta weight to length; for RKW/BW: right kidney weight to body weight; for VW/BW: ventricle weight to body weight; for LVW/BW: left ventricle weight to body weight
Experimental: as §1
Evaluation indexes: LVW/BW, RVW/BW and VW/BW are the ratios of the left ventricle weight, right ventricle weight, ventricle weight to the body weight, respectively. They reflect the degree of heart damage. A lower ratio means weak damage. RKW/BW is the ratio of right kidney weight to body weight, which reflects the degree of the renal damage. A […] ratio means weak damage. AW/LH (length) is the ratio of aorta weight to length, which reflects the degree of the aorta damage. A lower ratio means weak damage.
as §2

[3] = reported in literatures; cited from earlier work
SD rats = assay: Safety of long-term administration to rats; details: gavage 26 weeks, up to 320 mg/kg/day, six weeks recovery
Experimental: There were three groups with the dosages of 20, 80, 320 mg/kg/day Allisartan respectively and a solvent control group. There were 14 males and 14 females in each group. During the whole test period, the behavior, activity, appearance, sign and the like of rats were observed every day. The examinations of hematology, hemagglutination, blood biochemistry and pathology were done for rats on the 26th week after administration and at the end of six-week recovery after withdrawing the drugs.

Beagle dogs [4] = assay: Safety of long-term administration to Beagle dogs; type: in vivo, Beagle dog
Experimental: Half of them were male, and half were female. They were randomly divided into 4 groups according to weight, eight per group. Allisartan was administered by gavage for 13 weeks. There were three groups with dosages of 20, 100, 500 mg/kg/day respectively and a solvent control group.

in vivo = details: both, beagle, dog, po
Experimental: (§3) 2 Beagle dogs were about six-month old with the weight of 7 kg each, 1 male and 1 female. The dosage of Allisartan by single oral administration was 2500 mg/kg.

Beagle dogs [5] = assay: in vivo; details: dog, po, 2500 mg/kg
Experimental: as §3

healthy subjects = assay: Phase I clinical trial, single oral administration; type: in vivo, human
Experimental: Voluntary healthy subjects were 19-45 year old. They entered into the clinical trial ward before the date of the trial, ate light diet at night then fasted for 10 h without inhibiting water overnight. Allisartan tablets were administered by oral administration. The subjects were fasted on next morning, with the dosages from low to high (20 mg, 50 mg, 90 mg, 150 mg, 250 mg, 400 mg). The next dosage can be taken only after the observation of the effect of the last dosage. […] Adverse reaction of subjects were observed and recorded strictly.

[6] = 30 mg/kg in feed for four months
[7] = 7.5 mg/kg in feed for four months
[8] = 15 mg/kg in feed for four months
[9] = 20-40 mg single oral (so in the source)

CCCCc1nc(Cl)c(CO)n1Cc1ccc(-c2ccccc2-c2nn[nH]n2)cc1 [losartan potassium, reference compound]
HP [1, 6]: 187 ± 11.95 ms
DBP [1, 6]: 84 ± 9.56 mmHg
SBP [1, 6]: 124 ± 12.96 mmHg
AW/LH ([2]; 30 mg/kg, four months): 9.07 ± 0.65 mg/cm
RKW/BW ([2]; 30 mg/kg, four months): 4.00 ± 0.23 mg/g
VW/BW ([2]; 30 mg/kg, four months): 3.18 ± 0.29 mg/g
right kidney weight compared with negative control group ([2]; four months): significantly higher
unit aorta weight compared with negative control group ([2]; four months): significantly lower

CCCc1nc(C(C)(C)O)c(C(=O)O)n1Cc1ccc(-c2ccccc2-c2nnn[nH]2)cc1 [Olmesartan]
maximum tolerated dosage [3]: 40 mg/day

CCCCc1nc(Cl)c(C(=O)OCOC(=O)OC(C)C)n1Cc1ccc(-c2ccccc2-c2nnn[nH]2)cc1 [Allisartan, 2-butyl-4-chloro-1-[2′-(1H-tetrazol-5-yl)1,1′-biphenyl-methyl]imidazole-5-carboxylic acid, 1-[(isopropoxycarbonyl)oxy]methyl Ester]
weights, feeding, hematology, blood biochemistry and pathology (SD rats): normal; also recorded: no abnormal
HP [1, 7]: 176 ± 9.65 ms
DBP [1, 7]: 100 ± 5.98 mmHg
SBP [1, 7]: 141 ± 9.44 mmHg
HP [1, 8]: 179 ± 10.83 ms
DBP [1, 8]: 90 ± 5.74 mmHg
SBP [1, 8]: 132 ± 8.35 mmHg
HP [1, 6]: 184 ± 16.62 ms
DBP [1, 6]: 81 ± 6.20 mmHg
SBP [1, 6]: 121 ± 10.25 mmHg
histopathology examination, in general or under microscope (Beagle dogs [4]; gavage 13 weeks): no drug correlated lesions
sign, appearance, behavior, activity, shape of feces and feeding (Beagle dogs [4]; gavage 13 weeks, 20, 100, 500 mg/kg/day): normal
body weight, amount of eaten food, hematology, blood biochemical analysis and pathology (Beagle dogs [4]; long-term administration, 500 mg/kg/day): normal
MTD at 14 days (in vivo): > 2500 mg/kg
feeding and feces (Beagle dogs [5]): normal
histopathology examination of heart, lung, liver, spleen, kidney (Beagle dogs [5]): no drug correlated lesions
AW/LH ([2]; 7.5 mg/kg, four months): 10.52 ± 0.6 mg/cm
LVW/BW ([2]; 7.5 mg/kg, four months): 2.55 ± 0.15 mg/g
RKW/BW ([2]; 7.5 mg/kg, four months): 4.00 ± 0.3 mg/g
VW/BW ([2]; 7.5 mg/kg, four months): 3.20 ± 0.16 mg/g
AW/LH ([2]; 15 mg/kg, four months): 9.60 ± 0.81 mg/cm
LVW/BW ([2]; 15 mg/kg, four months): 2.51 ± 0.13 mg/g
RKW/BW ([2]; 15 mg/kg, four months): 4.24 ± 0.34 mg/g
VW/BW ([2]; 15 mg/kg, four months): 3.13 ± 0.13 mg/g
AW/LH ([2]; 30 mg/kg, four months): 9.26 ± 0.68 mg/cm
LVW/BW ([2]; 30 mg/kg, four months): 2.34 ± 0.16 mg/g
RKW/BW ([2]; 30 mg/kg, four months): 4.24 ± 0.13 mg/g
VW/BW ([2]; 30 mg/kg, four months): 3.01 ± 0.17 mg/g
effect against aorta thickening ([2]; four months): good effect
effect against renal cortex atrophy ([2]; four months): good effect
right kidney weight compared with negative control group ([2]; four months): significantly higher
unit aorta weight compared with negative control group ([2]; four months): significantly lower
ventricular weight compared with negative control group ([2]; low, middle and high dosages): significantly lower
effect on left ventricular hypertrophy of SHR ([2]; low, middle and high dosages, four months): reversing effect
adverse reaction (healthy subjects; [9]): no adverse reaction and serious adverse reaction events
safety of single oral administration (healthy subjects; [9]): very safe
adverse events (healthy subjects; 20-400 mg single oral): no adverse events or serious adverse events
safety of single oral administration (healthy subjects; 20-400 mg single oral): very safe

CCCCC(=O)N(Cc1ccc(-c2ccccc2-c2nnn[nH]2)cc1)[C@H](C(=O)O)C(C)C [Valsartan]
maximum tolerated dosage [3]: 320 mg/day

CCCCc1nc(Cl)c(CO)n1Cc1ccc(-c2ccccc2-c2nn[nH]n2)cc1 [Losartan]
maximum tolerated dosage [3]: 100 mg/day
